Test results: US20250171762A1, “THERAPEUTICAL PEPTIDOMIMETIC” (UNIVERSITA' DEGLI STUDI DI ROMA "LA SAPIENZA", priority 2021, published 2025)
Entries after “also recorded” stand apart in the source; their conditions may differ. Where two headings read alike, the source gives them in different places.

Legend:
[1] = tested on: m·3243A>G mt-tRNA^Leu(UUR) mutant cybrids; assay: Cell viability, Trypan blue dye exclusion, galactose vs glucose medium; format: cell-based, human; details: for viability of mutant cybrids vs non treated mutant cells: galactose medium
Experimental: For viability assessment, cells were plated in either glucose or galactose medium. The reason for this is that a viability phenotype can be appreciated in cells growing on galactose, which forces cells to rely on mitochondrial respiration, but not in cells growing on glucose. After 24 hours incubation, the number of viable cells in the galactose medium was normalized to the number of viable cells in glucose at the same time point, which represents the normal growth condition. Data are compared with the value of mutant cells incubated with vehicle only. Mean±SEM of at least three independent experiments is shown.
For viability assessment, cells were plated in either glucose or galactose medium. The reason for this is that a viability phenotype can be appreciated in cells growing on galactose, which forces cells to rely on mitochondrial respiration, but not in cells growing on glucose. After 24 hours incubation the number of viable cells in galactose medium was normalized to the number of viable cells in glucose (that represents the normal growth condition) at the same time point. Data are compared with the value of mutant cells incubated with vehicle only. Means±SEM of at least two independent experiments are shown.
Previously established osteosarcoma derived (143B.TK-) cybrid cell lines from patients, which bear either the m·3243A>G mutation in mt-tRNA^Leu(UUR) or the m·8344A>G mutation in mt-tRNA^Lys, and controls were used (generous gift from Dr Valeria Tiranti and Dr Valerio Carelli).
Cybrid cells were cultured in Dulbecco's modified Eagle's medium (DMEM), supplemented with 4.5 g/l d-glucose, 10% foetal bovine serum (FBS), 2 mM I-glutamine, 50 μg/ML uridine, 100 U/mL penicillin, and […] (referred to as glucose medium) in a humidified atmosphere of 95% air and 5% CO2 at 37° C. For cell viability experiments, cells were grown either in glucose medium or in glucose-free DMEM, supplemented with 5 mM galactose, […] sodium pyruvate, and 10% FBS (referred to as galactose medium). The reason for using the latter medium is that a pathological phenotype can be appreciated in cells growing on galactose, which forces cells to rely on mitochondrial respiration, but not in cells growing on glucose.
[…] Cells were switched in glucose or galactose and after 24 hours cell viability was measured by the Trypan blue dye exclusion assay. Cells were harvested with 0.25% trypsin and 0.2% EDTA, washed, suspended in PBS in the presence of Trypan blue solution (Sigma-Aldrich) at 1:1 ratio and counted using a hemocytometer. The number of viable cells in galactose medium was expressed as a percentage of the number of cells in glucose medium.
(§1) To evaluate the effect of the compounds on viability, cybrids were grown in glucose-free medium supplemented with galactose (galactose medium), a condition that both forces cells to rely on the mt respiratory chain for ATP synthesis and causes a significant growth reduction in the presence of mutations.
as §1, with “PMT and M-PMT” for “the compounds”

[2] = Plasma stability: incubation in human plasma, UPLC-MS quantification; format: in vitro ADME; details: for remaining at 3 h, 0.2 mM: read-out: peptide available after incubation in plasma
Experimental: Panel B. Time course decay of β32_33, PMT, PMT-8a and PMT-8b incubated up to 72 h with human plasma from four healthy subjects. […] The Y axis indicates the signal intensity of the four peptides. Samples of plasma were obtained from healthy volunteers and immediately used for the analysis. Either β32_33 peptide or PMT for the experiment in panel A, and β32_33 peptide, PMT, PMT-8a or PMT-8b for the experiment in panel B, was incubated in plasma at a final concentration of 0.2 mM, at 37° C., up to 3 h (A) or 72 h (B). At the indicated time points, i.e., T0 and 3 h (A) or T0, 1.5, 3, 6 and 72 h (B), aliquots of 200 μL were treated with 3 volumes of acetonitrile containing 1% formic acid and extracted by a solid phase extraction system to remove proteins and phospholipids. Samples were dried under vacuum, resuspended in 100 μL of 0.1% formic acid containing 5% acetonitrile, and analyzed with a Water Acquity H-Class UPLC system equipped with a single-quadruple mass detector with electrospray ionization source. Samples were separated onto a reverse phase C18 column by performing a gradient with two mobile phases consisting of 0.1% formic acid in water and 0.1% formic acid in acetonitrile at a flow rate of 0.5 mL/min. Quantification was performed by Selected lon Recording (SIR): at m/z=917.88, corresponding to the [M+2 H]^2+ion obtained from either β32_33 or PMT; at m/z=961.42, corresponding to the [M+H]^+ion obtained from PMT-8a; and at m/z=869.48, corresponding to the [M+H]^+ion obtained from PMT-8b.
In order to evaluate whether compounds (βp and d-βp) are stable in blood or hydrolyzed by plasma peptidases, we set up a chromatographic assay to evaluate compound concentration after incubation in human plasma.
Blood was drawn by venipuncture in vacutainer containing EDTA as an anticoagulant.
Two different samples from healthy volunteers were used. Plasma was separated by centrifugation and immediately used for the experiments. Each compound was dissolved in 500 uL plasma at a final concentration of 0.2 mM, and split into two aliquots, one of which was immediately analyzed to assess the basal compound level; the other was incubated at 37° C. for 3 hours under gentle shaking. In order to perform chromatographic analysis the samples were treated with 3 volumes of acetonitrile containing 1% formic acid, and then extracted by using the Ostro™ pass-through sample preparation system to remove proteins and phospholipids. Samples were dried under vacuum and then resuspended in 100 uL of 0.1% formic acid containing 5% acetonitrile, then directly injected onto the chromatographic column.
Chromatographic analyses were performed on a Water Acquity H-Class UPLC system (Waters, Milford, MA, USA), including a quaternary solvent manager (QSM), a sample manager with a flow through needle system (FTN), a photodiode array detector (PDA) and a single-quadruple mass detector with electrospray ionization source (ACQUITY QDa). Analyses were performed on a reverse phase C18 column (75 mm×3.2 mm i.d., 2.5 μm particle size). The mobile phase was solvent A, 0.1% formic acid in water, and solvent B, 0.1% formic acid in acetonitrile. The flow rate was 0.5 mL/min, the column temperature was set at 25° C. and the elution was performed by linearly increasing the concentration of solvent B up to 70% in 7 minutes. Mass spectrometric detection was performed in the positive electrospray ionization mode, using nitrogen as the nebulizer gas. Analyses were performed in the Total lon Current (TIC) mode with a mass range of 100-1200 m/z. The capillary voltage was 0.8 kV, cone voltage 8 V, ion source temperature 120° C. and probe temperature 600° C. Quantification of each compound was performed by Selected lon Recording (SIR) at m/z 917.88, corresponding to the […]

[3] = first experiment, plasma of two healthy volunteers, 37° C., 0.2 mM, 3 hours (FIG. 4A)
[4] = human, human plasma (EDTA) from healthy volunteers, first experiment, plasma of two healthy volunteers, 37° C., 0.2 mM, 3 hours (FIG. 4A)
[5] = second experiment, plasma of four healthy volunteers, 3 hours (FIG. 4B)

Compound	viability of mutant cybrids vs non treated mutant cells ([1]; 0.5 μM, 24 hours (FIG. 6))	viability of mutant cybrids vs non treated mutant cells ([1]; 2 μM, 24 hours (FIG. 6))	viability of mutant cybrids vs non treated mutant cells ([1]; 5 μM, 24 hours)	lower concentration improving viability with respect to PMT ([1]; m·3243A>G mutant cybrids, FIG. 6) [fold]	peptide available after incubation in plasma [2, 3] [%]	degraded peptide after incubation in plasma ([2]; first experiment, plasma of two healthy volunteers, 37° C., 3 hours (FIG. 4A))	remaining at 3 h, 0.2 mM [2, 4] [%]	metabolised at 3 h, 0.2 mM ([2]; human, human plasma (EDTA) from healthy volunteers, first experiment, plasma of two healthy volunteers, 37° C., 3 hours (FIG. 4A), read-out: degraded peptide after incubation in plasma) [%]	metabolised at 6 h, 0.2 mM ([2]; human, human plasma from healthy volunteers, second experiment, 6 h, read-out: peptide degraded after incubation in plasma) [%]	remaining at 1.5 h, 0.2 mM ([2]; human, human plasma from healthy volunteers, second experiment, plasma of four healthy volunteers, 1.5 h (FIG. 4B), read-out: starting amount present after incubation in plasma) [%]	remaining at 3 h, 0.2 mM ([2]; human, human plasma from healthy volunteers, second experiment, plasma of four healthy volunteers, 3 hours (FIG. 4B)) [%]	peptide available after incubation in plasma [2, 5] [%]	detectable degradation in plasma ([2]; first experiment, plasma of two healthy volunteers, 3 hours)	plasma stability compared with another peptide ([2]; human plasma, FIG. 4)	remaining at 6 h, 0.2 mM ([2]; human, human plasma from healthy volunteers, second experiment, 6 h, read-out: peptide present after incubation in plasma) [%]	detectable degradation in plasma ([2]; second experiment, plasma of four healthy volunteers, up to 72 h)
FRFKKKSFLSPRTALINFLV (SITE 1 d-Phenylalanine; SITE 2 d-Arginine; SITE 3 d-Phenylalanine; SITE 4 d-Lysine; SITE 5 d-Lysine; SITE 6 d-Lysine; SITE 7 d-Serine; SITE 8 d-Phenylalanine; SITE 9 d-Leucine; SITE 10 d-Serine; SITE 11 d-Proline; SITE 12 d-Arginine; SITE 13 d-Threonine; SITE 14 d-Alanine; SITE 15 d-Leucine; SITE 16 d-Isoleucine; SITE 17 d-Asparagine; SITE 18 d-Phenylalanine; SITE 19 d-Leucine; SITE 20 d-Valine) [M-PMT]	significantly improves	significantly improved	significantly improved	10												
CC[C@H](C)[C@H](NC(=O)[C@H](CC(C)C)NC(=O)[C@H](C)NC(=O)[C@@H](NC(=O)[C@H](CCCNC(=N)N)NC(=O)[C@@H]1CCCN1C(=O)[C@H](CO)NC(=O)[C@H](CC(C)C)NC(=O)[C@H](Cc1ccccc1)NC(=O)[C@H](CO)NC(=O)[C@H](CCCCN)NC(=O)[C@@H](N)CCCCN)[C@@H](C)O)C(=O)N[C@@H](CC(N)=O)C(=O)N[C@@H](Cc1ccccc1)C(=O)N[C@@H](CC(C)C)C(=O)N[C@H](C(=O)O)C(C)C [β32_33, KKSFLSPRTALINFLV, reference compound]					70	at least 30%	70	30	90	> 85	17	17				
CC[C@@H](C)[C@@H](NC(=O)[C@@H](CC(C)C)NC(=O)[C@@H](C)NC(=O)[C@H](NC(=O)[C@@H](CCCNC(=N)N)NC(=O)[C@H]1CCCN1C(=O)[C@@H](CO)NC(=O)[C@@H](CC(C)C)NC(=O)[C@@H](Cc1ccccc1)NC(=O)[C@@H](CO)NC(=O)[C@@H](CCCCN)NC(=O)[C@H](N)CCCCN)[C@H](C)O)C(=O)N[C@H](CC(N)=O)C(=O)N[C@H](Cc1ccccc1)C(=O)N[C@H](CC(C)C)C(=O)N[C@@H](C(=O)O)C(C)C [PMT, d(K)d(K)d(S)d(F)d(L)d(S)d(P)d(R)d(T)d(A)d(L)d(I)d(N)d(F)d(L)d(V)]					100		100					> 63	does not undergo visible degradation; also recorded: did not undergo detectable degradation	consistently higher stability than the β32_33 peptide; also recorded: higher plasma stability than the β32_33 peptide at all time points; also recorded: slower degradation than the β32_33 peptide	> 50	did undergo detectable degradation
